The text below walks through data of US9814712B2, “(S)-pirlindole and its pharmaceutically acceptable salts for use in medicine” (TECNIMEDE SOCIEDADE TECNICO-MEDICINAL S.A., priority 2014, dated 2017).

The experiment concerns spared nerve injury (SNI) model, mechanical allodynia. Description: Von Frey test of mechanical allodynia in the spared nerve injury (SNI) model. The following applies: SNI rats, 20 mg/kg i.p. daily, Von Frey monofilaments, naive and sham 15 g. The class given is in vivo, Sprague-Dawley rats. The source says:
For this purpose, the inventors have chosen the animal model designed by Decosterd and Woolf (Pain, 2000), which developed a partial denervation model, technically easy to perform and subject to minimal variability in the degree of damage produced. Most important was that this is a model that will enable a direct measurement of changes in both injured primary sensory neurons and in neighbouring intact sensory neurons so that their relative contribution to the pathophysiology of pain could be investigated. […] All procedures were performed on adult (200-250 g) male Sprague-Dawley rats. Under halothane (2%) anesthesia, the skin on the lateral surface of the thigh was incised and a section made directly through the biceps femoris muscle exposing the sciatic nerve and its three terminal branches: the sural, the common peroneal and the tibial nerves. The spared nerve injury procedure comprised an axotomy and ligation of the tibial and common peroneal nerves leaving the sural nerve intact. The common peroneal and the tibial nerves were tight-ligated with 5.0 silk and sectioned distal to the ligation, removing 2±4 mm of the distal nerve stump. Great care was taken to avoid any contact with or stretching of the intact sural nerve. Muscle and skin were closed in two layers. Sham controls involved exposure of the sciatic nerve and its branches without any lesion. The Von Frey test is a mechanical sensitivity assay that consists of thin calibrated plastic filaments, called Von Frey hairs, which are applied to the plantar surface of the hindpaw of the tested animal. The filaments present different degrees of stiffness that are used to determine the one that evokes a hindpaw withdrawal. Each filament, starting with the less stiff, is applied to the plantar surface of both hindpaws of each rat. The process is repeated with Von Frey hairs of increasing stiffness until one evokes a reflexive and sustained hindpaw withdrawal. This is defined as the withdrawal threshold, is measured in grams and is an indicator of mechanical allodynia. In the present example the animals were divided in 6 (six) groups (n=7 per group): naive control (negative control), sham control, SNI plus water (positive control), SNI plus (rac)-pirlindole 20 mg/kg, SNI plus (S)-pirlindole 20 mg/kg, SNI plus (R)-pirlindole 20 mg/kg and. After the application of surgical procedure to the groups of sham control, SNI plus water (positive control), SNI plus (rac)-pirlindole, SNI plus (S)-pirlindole and SNI plus (R)-pirlindole, the animals were confined during a 7 weeks (7 wk) period aiming the full induction of mechanical allodynia. Following a 3 week (3 wk), treatment period was started and water or one of the test items (rac-pirlindole, S-pirlindole and R-pirlindole) were administered by intraperitoneal (ip) route, on a daily basis. At the 2nd and 3rd week of treatment the mechanical allodynia was tested. The animals were placed on an elevated wire grid and the plantar surface of the paw stimulated with a series of ascending force Von Frey monofilaments. The threshold was taken as the lowest force that evoked a brisk withdrawal response to one of the repetitive stimuli (Tal and Bennett, 1994). The lateral and medial plantar surfaces of the paw as well as its dorsal surface were tested.

Where [1] appears, read: wk2 of treatment, SNI plus water 0.41 g.
Where [2] appears, read: wk3 of treatment, SNI plus water 0.14 g.

As to `Cc1ccc2c(c1)c1c3n2CCNC3CCC1` (racemic) [(rac)-pirlindole, 2,3,3a,4,5,6-hexahydro-8 methyl-1H-pyrazino [3,2,1-j, k] carbazole], the “mean lowest force that evoked a brisk withdrawal response” value under setting [1] amounted to 3.50 g and the “mean lowest force that evoked a brisk withdrawal response” value under setting [2] worked out at 2.08 g.
Consider `Cc1ccc2c(c1)c1c3n2CCN[C@H]3CCC1` [(S)-pirlindole], for which the “mean lowest force that evoked a brisk withdrawal response” value reads like this: under setting [1], 4.51 g; under setting [2], 7.43 g.
On the same counts, the results for `Cc1ccc2c(c1)c1c3n2CCN[C@@H]3CCC1` [(R)-pirlindole] are 3.08 g and 1.39 g.
